Laboratory results reported in paper PMC10247784, “Physiological activation of human and mouse bitter taste receptors by bile acids” (Communications Biology, 2023).
Several values for one entry are separate records, joined by “and”; a condition that tells them apart may be missing. Identical values can stand only once.

Molecular target: T1, human TAS2R14 (Homo sapiens, UniProt Q9NYV8)
T1 construct: expressed in transfected cells; host or cells: HEK293T-Gα16gust44
T1 sequence (Q9NYV8 1-317): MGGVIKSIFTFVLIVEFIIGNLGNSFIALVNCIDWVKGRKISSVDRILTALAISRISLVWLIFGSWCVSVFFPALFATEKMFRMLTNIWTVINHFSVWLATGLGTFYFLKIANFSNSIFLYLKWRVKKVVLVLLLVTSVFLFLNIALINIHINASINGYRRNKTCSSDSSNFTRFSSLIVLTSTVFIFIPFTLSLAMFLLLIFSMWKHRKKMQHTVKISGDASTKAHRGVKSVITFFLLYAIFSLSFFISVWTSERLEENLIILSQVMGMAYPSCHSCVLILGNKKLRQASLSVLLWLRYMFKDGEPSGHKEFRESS
Experiment: Calcium imaging assay (FLIPR), HEK293T-Gα16gust44 cells transfected with human TAS2R14
Format: cell-based
Settings: for RLU: TAS2R14 trace
Method in brief: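 HEK293T-Gα16gust44 cells transiently transfected with the bitter-taste receptor, loaded next day with Fluo-4-AM plus 2.5 mM probenecid, and challenged with bile acids on FLIPR Tetra. Signals mock-subtracted, expressed as ΔF/F vs buffer.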

In the case of `C[C@H](CCC(=O)O)[C@H]1CC[C@H]2[C@@H]3[C@H](O)C[C@@H]4C[C@H](O)CC[C@]4(C)[C@H]3C[C@H](O)[C@]12C` [Cholic Acid, cholic acid], the “Efficacy = maximal amplitude (ΔF/F)” value (TAS2R14, bile acids, mean) is reported as 0.2451, the “Efficacy (maximal amplitude ΔF/F), individual data points” value (TAS2R14, bile acids, single replicates, listed as CA) is reported as 0.2582 and 0.2878 and 0.1894 and the RLU (Time (s) 0) is reported as 0 RLU. For the same compound, the RLU (Time (s) 2 (Taurocholic Acid 2.016)) was 8.733 RLU, the RLU (Time (s) 4 (Taurocholic Acid 4.016)) was -17.1002 RLU and the RLU (Time (s) 6 (Taurocholic Acid 6.016)) was -14.5682 RLU. It also gave an RLU (Time (s) 8 (Taurocholic Acid 8.016)) of -36.4848 RLU, an RLU (Time (s) 12 (Taurocholic Acid 12.016)) of -26.3442 RLU and an RLU (Time (s) 14 (Taurocholic Acid 14.016)) of -33.528 RLU. The RLU (Time (s) 16 (Taurocholic Acid 16.016)) was -31.0627 RLU, the RLU (Time (s) 18 (Taurocholic Acid 18.016)) was -30.2662 RLU and the RLU (Time (s) 18.797 (Chenodeoxycholic Acid 18.765)) was -22.7559 RLU. It also gave an RLU (Time (s) 20.797 (Chenodeoxycholic Acid 20.781)) of -44.5987 RLU, an RLU (Time (s) 22.797 (Chenodeoxycholic Acid 22.781)) of 9.863 RLU and an RLU (Time (s) 24.797 (Chenodeoxycholic Acid 24.781)) of -6.39 RLU. It also gave an RLU (Time (s) 26.797 (Chenodeoxycholic Acid 26.781)) of 16.5716 RLU, an RLU (Time (s) 28.797 (Chenodeoxycholic Acid 28.781)) of 41.6203 RLU and an RLU (Time (s) 30.797 (Chenodeoxycholic Acid 30.781)) of 60.9467 RLU. For the same compound, the RLU (Time (s) 32.797 (Chenodeoxycholic Acid 32.781)) was 99 RLU, the RLU (Time (s) 34.797 (Chenodeoxycholic Acid 34.781)) was 154.774 RLU and the RLU (Time (s) 36.797 (Chenodeoxycholic Acid 36.781)) was 189.099 RLU. It also gave an RLU (Time (s) 38.797 (Chenodeoxycholic Acid 38.781)) of 207.548 RLU, an RLU (Time (s) 40.797 (Chenodeoxycholic Acid 40.781)) of 286.95 RLU and an RLU (Time (s) 42.797 (Chenodeoxycholic Acid 42.781)) of 332.949 RLU. It also gave an RLU (Time (s) 44.797 (Chenodeoxycholic Acid 44.781)) of 381.413 RLU, an RLU (Time (s) 46.797 (Chenodeoxycholic Acid 46.781)) of 432.303 RLU and an RLU (Time (s) 48.797 (Chenodeoxycholic Acid 48.781)) of 481.551 RLU. The RLU (Time (s) 50.797 (Chenodeoxycholic Acid 50.781)) was 522.709 RLU, the RLU (Time (s) 52.797 (Chenodeoxycholic Acid 52.781)) was 573.985 RLU and the RLU (Time (s) 54.797 (Chenodeoxycholic Acid 54.781)) was 600.804 RLU. It also gave an RLU (Time (s) 56.797 (Chenodeoxycholic Acid 56.781)) of 603.138 RLU, an RLU (Time (s) 58.797 (Chenodeoxycholic Acid 58.781)) of 677.301 RLU and an RLU (Time (s) 60.797 (Chenodeoxycholic Acid 60.781)) of 689.232 RLU. The RLU (Time (s) 62.797 (Chenodeoxycholic Acid 62.781)) was 740.761 RLU, the RLU (Time (s) 64.797 (Chenodeoxycholic Acid 64.781)) was 760.673 RLU and the RLU (Time (s) 66.797 (Chenodeoxycholic Acid 66.781)) was 793.47 RLU. It also gave an RLU (Time (s) 68.797 (Chenodeoxycholic Acid 68.781)) of 795.682 RLU, an RLU (Time (s) 70.797 (Chenodeoxycholic Acid 70.781)) of 846.508 RLU and an RLU (Time (s) 72.797 (Chenodeoxycholic Acid 72.781)) of 873.655 RLU. The RLU (Time (s) 74.797 (Chenodeoxycholic Acid 74.781)) was 945.307 RLU, the RLU (Time (s) 76.797 (Chenodeoxycholic Acid 76.781)) was 951.601 RLU and the RLU (Time (s) 78.797 (Chenodeoxycholic Acid 78.781)) was 969.484 RLU. It also gave an RLU (Time (s) 80.797 (Chenodeoxycholic Acid 80.781)) of 1026.08 RLU, an RLU (Time (s) 82.797 (Chenodeoxycholic Acid 82.781)) of 1051.68 RLU and an RLU (Time (s) 84.797 (Chenodeoxycholic Acid 84.781)) of 1028.13 RLU. It also gave an RLU (Time (s) 86.797 (Chenodeoxycholic Acid 86.781)) of 1075.38 RLU, an RLU (Time (s) 88.797 (Chenodeoxycholic Acid 88.781)) of 1071.24 RLU and an RLU (Time (s) 90.797 (Chenodeoxycholic Acid 90.781)) of 1092.31 RLU. The RLU (Time (s) 92.797 (Chenodeoxycholic Acid 92.781)) was 1143.7 RLU, the RLU (Time (s) 94.797 (Chenodeoxycholic Acid 94.781)) was 1154.9 RLU and the RLU (Time (s) 96.797 (Chenodeoxycholic Acid 96.781)) was 1163.63 RLU. The RLU (Time (s) 98.797 (Chenodeoxycholic Acid 98.781)) was 1184.89 RLU, the RLU (Time (s) 100.797 (Chenodeoxycholic Acid 100.781)) was 1211.25 RLU and the RLU (Time (s) 102.797 (Chenodeoxycholic Acid 102.781)) was 1207.36 RLU. For the same compound, the RLU (Time (s) 104.797 (Chenodeoxycholic Acid 104.781)) was 1232.88 RLU, the RLU (Time (s) 106.797 (Chenodeoxycholic Acid 106.781)) was 1256.04 RLU and the RLU (Time (s) 108.797 (Chenodeoxycholic Acid 108.781)) was 1236.19 RLU. It also gave an RLU (Time (s) 110.797 (Chenodeoxycholic Acid 110.781)) of 1242.72 RLU, an RLU (Time (s) 112.797 (Chenodeoxycholic Acid 112.781)) of 1266.26 RLU and an RLU (Time (s) 114.797 (Chenodeoxycholic Acid 114.781)) of 1269.15 RLU. It also gave an RLU (Time (s) 116.797 (Chenodeoxycholic Acid 116.781)) of 1265.61 RLU, an RLU (Time (s) 118.797 (Chenodeoxycholic Acid 118.781)) of 1260.33 RLU and an RLU (Time (s) 120.797 (Chenodeoxycholic Acid 120.781)) of 1305.24 RLU. The RLU (Time (s) 122.797 (Chenodeoxycholic Acid 122.781)) was 1269.8 RLU, the RLU (Time (s) 124.797 (Chenodeoxycholic Acid 124.781)) was 1271.64 RLU and the RLU (Time (s) 126.797 (Chenodeoxycholic Acid 126.781)) was 1263.68 RLU. It also gave an RLU (Time (s) 128.797 (Chenodeoxycholic Acid 128.781)) of 1291.8 RLU, an RLU (Time (s) 130.797 (Chenodeoxycholic Acid 130.781)) of 1262.68 RLU and an RLU (Time (s) 132.797 (Chenodeoxycholic Acid 132.781)) of 1269.55 RLU. It also gave an RLU (Time (s) 134.797 (Chenodeoxycholic Acid 134.781)) of 1262.84 RLU, an RLU (Time (s) 136.797 (Chenodeoxycholic Acid 136.781)) of 1277.95 RLU and an RLU (Time (s) 137.562 (Taurocholic Acid 137.563, Chenodeoxycholic Acid 137.546)) of 1261.13 RLU. It also gave an RLU (Time (s) 143.578 (Taurocholic Acid 143.563, Chenodeoxycholic Acid 143.546)) of 1235.79 RLU, an RLU (Time (s) 149.578 (Taurocholic Acid 149.563, Chenodeoxycholic Acid 149.546)) of 1235.83 RLU and an RLU (Time (s) 155.578 (Taurocholic Acid 155.563, Chenodeoxycholic Acid 155.546)) of 1156.37 RLU. For the same compound, the RLU (Time (s) 161.578 (Taurocholic Acid 161.563, Chenodeoxycholic Acid 161.546)) was 1154.38 RLU, the RLU (Time (s) 167.578 (Taurocholic Acid 167.563, Chenodeoxycholic Acid 167.546)) was 1122.87 RLU and the RLU (Time (s) 173.578 (Taurocholic Acid 173.563, Chenodeoxycholic Acid 173.546)) was 1009.37 RLU. For the same compound, the RLU (Time (s) 179.578 (Taurocholic Acid 179.563, Chenodeoxycholic Acid 179.546)) was 994.85 RLU, the RLU (Time (s) 191.578 (Taurocholic Acid 191.563, Chenodeoxycholic Acid 191.546)) was 855.583 RLU and the RLU (Time (s) 197.578 (Taurocholic Acid 197.563, Chenodeoxycholic Acid 197.546)) was 818.047 RLU. The RLU (Time (s) 209.578 (Taurocholic Acid 209.563, Chenodeoxycholic Acid 209.546)) was 723.754 RLU, the RLU (Time (s) 221.578 (Taurocholic Acid 221.563, Chenodeoxycholic Acid 221.546)) was 629.159 RLU and the RLU (Time (s) 233.578 (Taurocholic Acid 233.563, Chenodeoxycholic Acid 233.546)) was 528.668 RLU. The RLU (Time (s) 239.578 (Taurocholic Acid 239.563, Chenodeoxycholic Acid 239.546)) was 477.512 RLU, the RLU (Time (s) 245.578 (Taurocholic Acid 245.563, Chenodeoxycholic Acid 245.546)) was 438.571 RLU and the RLU (Time (s) 293.578 (Taurocholic Acid 293.563, Chenodeoxycholic Acid 293.546)) was 221.346 RLU. It also gave an RLU (Time (s) 299.578 (Taurocholic Acid 299.563, Chenodeoxycholic Acid 299.546)) of 202.892 RLU, an RLU (Time (s) 305.578 (Taurocholic Acid 305.563, Chenodeoxycholic Acid 305.546)) of 181.254 RLU and an RLU (Time (s) 311.578 (Taurocholic Acid 311.563, Chenodeoxycholic Acid 311.546)) of 152.075 RLU. It also gave an RLU (Time (s) 317.578 (Taurocholic Acid 317.563, Chenodeoxycholic Acid 317.546)) of 165.461 RLU, an RLU (Time (s) 323.578 (Taurocholic Acid 323.563, Chenodeoxycholic Acid 323.546)) of 152.075 RLU and an RLU (Time (s) 329.578 (Taurocholic Acid 329.563, Chenodeoxycholic Acid 329.546)) of 111.269 RLU. The RLU (Time (s) 335.578 (Taurocholic Acid 335.563, Chenodeoxycholic Acid 335.546)) was 88.8846 RLU, the RLU (Time (s) 341.578 (Taurocholic Acid 341.563, Chenodeoxycholic Acid 341.546)) was 75.1088 RLU and the RLU (Time (s) 347.578 (Taurocholic Acid 347.563, Chenodeoxycholic Acid 347.546)) was 60.0955 RLU. The RLU (Time (s) 353.578 (Taurocholic Acid 353.563, Chenodeoxycholic Acid 353.546)) was 37.7794 RLU, the RLU (Time (s) 359.578 (Taurocholic Acid 359.563, Chenodeoxycholic Acid 359.546)) was 47.6877 RLU and the “Activation threshold concentration TAS2R14” value (lowest concentration with significantly increased fluorescence vs empty vector (p < 0.01)) was 300 µM.
